Consider 17 compounds from patent US8791267B2, “Biaryl PDE4 inhibitors for treating inflammatory, cardiovascular and CNS disorders” (Decode Genetics EHF, priority 2007, dated 2014).

Molecules are shown by their SMILES. Counter-ions that a name gives are not always drawn. Like-named read-outs stand apart in the source and are kept apart here.

The target in one assay is PDE4 (Homo sapiens, UniProt Q08499). The experiment in a line: In-vitro assay for PDE4 enzymes, real-time enzyme-coupled spectrophotometric assay (Table 9). It counts as biochemical.
The target in the next assay is PDE4B (Homo sapiens, UniProt Q07343). The experiment in a line: In-vitro assay for PDE4 enzymes, real-time enzyme-coupled spectrophotometric assay, PDE4B Activity (Table 10). It is filed as biochemical.
[1] abbreviates: human PDE4D, activity class, Table 9, read-out: hPDE4D.
Setting [2] is: human PDE4B (hPDE4B), enzyme-coupled spectrophotometric assay, read-out: PDE4B Activity, hPDE4B.

Chain of PDE4B (Q07343 whole entry): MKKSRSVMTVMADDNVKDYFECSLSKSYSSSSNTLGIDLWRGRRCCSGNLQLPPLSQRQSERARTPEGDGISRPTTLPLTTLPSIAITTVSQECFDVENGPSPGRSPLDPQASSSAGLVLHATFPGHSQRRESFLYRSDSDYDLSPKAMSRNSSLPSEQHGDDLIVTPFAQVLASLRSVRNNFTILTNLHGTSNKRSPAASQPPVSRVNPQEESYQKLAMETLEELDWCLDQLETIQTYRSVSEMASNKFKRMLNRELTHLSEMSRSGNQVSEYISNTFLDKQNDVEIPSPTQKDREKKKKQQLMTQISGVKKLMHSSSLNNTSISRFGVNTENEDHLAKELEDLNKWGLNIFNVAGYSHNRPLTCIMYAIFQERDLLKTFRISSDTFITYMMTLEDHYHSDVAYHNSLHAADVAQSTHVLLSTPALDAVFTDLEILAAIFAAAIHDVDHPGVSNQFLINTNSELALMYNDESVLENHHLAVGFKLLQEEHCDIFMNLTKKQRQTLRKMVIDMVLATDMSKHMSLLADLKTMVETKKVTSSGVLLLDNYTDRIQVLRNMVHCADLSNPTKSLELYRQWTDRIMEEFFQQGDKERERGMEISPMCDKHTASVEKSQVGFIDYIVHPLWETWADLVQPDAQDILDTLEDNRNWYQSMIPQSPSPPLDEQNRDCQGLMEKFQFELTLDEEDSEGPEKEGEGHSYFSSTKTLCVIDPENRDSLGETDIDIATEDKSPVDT
Chain of PDE4 (Q08499 whole entry): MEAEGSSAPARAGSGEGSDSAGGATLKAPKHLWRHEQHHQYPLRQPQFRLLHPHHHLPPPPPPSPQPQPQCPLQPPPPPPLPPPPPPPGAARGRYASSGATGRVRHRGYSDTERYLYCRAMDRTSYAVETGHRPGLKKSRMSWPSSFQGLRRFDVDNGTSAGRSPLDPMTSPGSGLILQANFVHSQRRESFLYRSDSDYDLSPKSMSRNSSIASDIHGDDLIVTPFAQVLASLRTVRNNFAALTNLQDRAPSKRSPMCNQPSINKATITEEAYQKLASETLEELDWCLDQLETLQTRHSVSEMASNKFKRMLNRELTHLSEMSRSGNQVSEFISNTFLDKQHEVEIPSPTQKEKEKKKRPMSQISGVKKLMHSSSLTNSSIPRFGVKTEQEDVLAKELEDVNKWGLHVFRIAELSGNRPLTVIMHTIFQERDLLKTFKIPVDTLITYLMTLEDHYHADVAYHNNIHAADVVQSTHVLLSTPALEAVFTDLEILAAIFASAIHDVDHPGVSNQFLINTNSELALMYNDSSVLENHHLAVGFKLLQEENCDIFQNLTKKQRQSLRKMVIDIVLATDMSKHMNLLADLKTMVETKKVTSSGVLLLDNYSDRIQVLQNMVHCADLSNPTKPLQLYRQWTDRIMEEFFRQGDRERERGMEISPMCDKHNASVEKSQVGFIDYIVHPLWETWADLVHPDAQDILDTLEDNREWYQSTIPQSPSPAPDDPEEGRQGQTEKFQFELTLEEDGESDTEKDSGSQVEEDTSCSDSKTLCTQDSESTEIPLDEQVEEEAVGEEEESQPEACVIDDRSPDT

Take `COc1ccc(Cc2ccc(N3CCC3)nc2)cc1-c1cccc(Cl)c1` [P-568, 2-azetidin-1-yl-5-(3′-chloro-6-methoxy-biphenyl-3-ylmethyl)-pyridine]: the IC50 on PDE4 (setting [1]) and at PDE4B (setting [2]) was below 5 µM throughout.
As to `COc1ccc(Cc2ccc(N3CCC3)nc2)c(F)c1-c1cccc(Cl)c1` [P-569, 2-Azetidin-1-yl-5-(3′-chloro-2-fluoro-6-methoxy-biphenyl-3-ylmethyl)-pyridine], the IC50 on PDE4 (setting [1]) and on PDE4B (setting [2]) was below 5 µM each time.
Regarding `CCNC(=O)OCc1ccc(Cc2ccc(OC)c(-c3cccc(Cl)c3)c2)cn1` [P-570, Ethyl-carbamic acid 5-(3′-chloro-6-methoxy-biphenyl-3-ylmethyl)-pyridin-2-ylmethyl ester hydrochloride], the IC50 at PDE4 (setting [1]) and on PDE4B (setting [2]) was below 5 µM each time.
As for `COc1ccc(Cc2ccc(N3CCC3C(N)=O)nc2)c(F)c1-c1cccc(Cl)c1` (stereo not shown) [P-571, 1-[5-(3′-chloro-2-fluoro-6-methoxy-biphenyl-3-ylmethyl)-pyridin-2-yl]-azetidine-2-carboxylic acid amide], the IC50 on PDE4 (setting [1]) and on PDE4B (setting [2]) was below 5 µM each time.
Regarding `COc1ccc(Cc2ccc(-n3ccnc3)nc2)c(F)c1-c1cccc(Cl)c1` [P-573, 5-(3′-chloro-2-fluoro-6-methoxy-biphenyl-3-ylmethyl)-2-imidazol-1-yl-pyridine], the IC50 on PDE4 (setting [1]) and on PDE4B (setting [2]) was below 5 µM throughout.
Take `COc1ccc(COc2ccc([N+](=O)[O-])cc2)c(F)c1-c1cccc(Cl)c1` [P-575]: the results for the IC50 on PDE4 (setting [1]) and on PDE4B (setting [2]) were 5 to 20 µM and below 5 µM, respectively.
In the same order, the values of `COc1ccc(COc2ccc(N)cc2)c(F)c1-c1cccc(Cl)c1` [P-576] are below 5 µM and below 5 µM.
In the same order, the values of `COc1ccc(C(=O)c2ccc(N)cc2)cc1-c1ccc2c(c1)OCCO2` [P-578] are below 5 µM and below 5 µM.
On the same counts, the results for `COc1ccc(C(=O)c2ccc(N)cc2)cc1-c1cccc(F)c1` [P-579] are below 5 µM and below 5 µM.
`COc1ccc(Cc2ccc(N3CCCC3)nc2)c(F)c1-c1cccc(Cl)c1` [P-582, 5-(3′-Chloro-2-fluoro-6-methoxy-biphenyl-3-ylmethyl)-2-pyrrolidin-1-yl-pyridine]: the IC50 at PDE4 (setting [1]) and at PDE4B (setting [2]) was below 5 µM in each case.
`[2H]C(O)(c1ccc([N+](=O)[O-])cc1)c1ccc(OC)c(-c2cccc(Cl)c2)c1` (stereo not shown) [P-583]: the IC50 is below 5 µM at PDE4 (setting [1]) and 5 to 20 µM on PDE4B (setting [2]).
On the same counts, the results for `COc1ccc(COc2ccc(Cl)nc2)c(F)c1-c1cccc(Cl)c1` [P-585] are below 5 µM and below 5 µM.
In the same order, the values of `COc1ccc(Cc2ccc(C(C)(C)O)nc2)c(F)c1-c1cccc(Cl)c1` [P-587, 2-[5-(3′-Chloro-2-fluoro-6-methoxy-biphenyl-3-ylmethyl)-pyridin-2-yl]-propan-2-ol hydrochloride] are below 5 µM and below 5 µM.
In the same order, the values of `COc1ccc(Cc2ccc(OCCN(C)C)nc2)c(F)c1-c1cccc(Cl)c1` [P-588, {2-[5-(3′-Chloro-2-fluoro-6-methoxy-biphenyl-3-ylmethyl)-pyridin-2-yloxy]-ethyl}-dimethyl-amine] are below 5 µM and below 5 µM.
Turning to `COc1ccc(Cc2ccc(C#N)nc2)cc1-c1cccc(Cl)c1` [P-590, 5-(3′-chloro-6-methoxy-biphenyl-3-ylmethyl)-pyridine-2-carbonitrile], the IC50 at PDE4 (setting [1]) and on PDE4B (setting [2]) was below 5 µM in each case.
Regarding `COc1ccc(Cc2ccc(CN)nc2)cc1-c1cccc(Cl)c1` [P-591, C-[5-(3′-chloro-6-methoxy-biphenyl-3-ylmethyl)-pyridin-2-yl]-methylamine hydrochloride], the IC50 at PDE4 (setting [1]) and on PDE4B (setting [2]) was below 5 µM each time.
Take `COc1ccc(Cc2ccc(CNC(=O)Oc3ccccc3)nc2)cc1-c1cccc(Cl)c1` [P-592, [5-(3′-Chloro-6-methoxy-biphenyl-3-ylmethyl)-pyridin-2-ylmethyl]-carbamic acid phenyl ester]: the IC50 against PDE4 and on PDE4B was below 5 µM throughout.
